The values below come from publication PMC12106687 (Nature Communications, 2025).

For this assay, the target named is HECTD1 (Homo sapiens, UniProt Q9ULT8). Description: in-cell competitive QTRP. The format is biochemical. The settings on record: covalent; C1368; […], […] h in HEK293T cells.
HECTD1, sequence (Q9ULT8 whole entry): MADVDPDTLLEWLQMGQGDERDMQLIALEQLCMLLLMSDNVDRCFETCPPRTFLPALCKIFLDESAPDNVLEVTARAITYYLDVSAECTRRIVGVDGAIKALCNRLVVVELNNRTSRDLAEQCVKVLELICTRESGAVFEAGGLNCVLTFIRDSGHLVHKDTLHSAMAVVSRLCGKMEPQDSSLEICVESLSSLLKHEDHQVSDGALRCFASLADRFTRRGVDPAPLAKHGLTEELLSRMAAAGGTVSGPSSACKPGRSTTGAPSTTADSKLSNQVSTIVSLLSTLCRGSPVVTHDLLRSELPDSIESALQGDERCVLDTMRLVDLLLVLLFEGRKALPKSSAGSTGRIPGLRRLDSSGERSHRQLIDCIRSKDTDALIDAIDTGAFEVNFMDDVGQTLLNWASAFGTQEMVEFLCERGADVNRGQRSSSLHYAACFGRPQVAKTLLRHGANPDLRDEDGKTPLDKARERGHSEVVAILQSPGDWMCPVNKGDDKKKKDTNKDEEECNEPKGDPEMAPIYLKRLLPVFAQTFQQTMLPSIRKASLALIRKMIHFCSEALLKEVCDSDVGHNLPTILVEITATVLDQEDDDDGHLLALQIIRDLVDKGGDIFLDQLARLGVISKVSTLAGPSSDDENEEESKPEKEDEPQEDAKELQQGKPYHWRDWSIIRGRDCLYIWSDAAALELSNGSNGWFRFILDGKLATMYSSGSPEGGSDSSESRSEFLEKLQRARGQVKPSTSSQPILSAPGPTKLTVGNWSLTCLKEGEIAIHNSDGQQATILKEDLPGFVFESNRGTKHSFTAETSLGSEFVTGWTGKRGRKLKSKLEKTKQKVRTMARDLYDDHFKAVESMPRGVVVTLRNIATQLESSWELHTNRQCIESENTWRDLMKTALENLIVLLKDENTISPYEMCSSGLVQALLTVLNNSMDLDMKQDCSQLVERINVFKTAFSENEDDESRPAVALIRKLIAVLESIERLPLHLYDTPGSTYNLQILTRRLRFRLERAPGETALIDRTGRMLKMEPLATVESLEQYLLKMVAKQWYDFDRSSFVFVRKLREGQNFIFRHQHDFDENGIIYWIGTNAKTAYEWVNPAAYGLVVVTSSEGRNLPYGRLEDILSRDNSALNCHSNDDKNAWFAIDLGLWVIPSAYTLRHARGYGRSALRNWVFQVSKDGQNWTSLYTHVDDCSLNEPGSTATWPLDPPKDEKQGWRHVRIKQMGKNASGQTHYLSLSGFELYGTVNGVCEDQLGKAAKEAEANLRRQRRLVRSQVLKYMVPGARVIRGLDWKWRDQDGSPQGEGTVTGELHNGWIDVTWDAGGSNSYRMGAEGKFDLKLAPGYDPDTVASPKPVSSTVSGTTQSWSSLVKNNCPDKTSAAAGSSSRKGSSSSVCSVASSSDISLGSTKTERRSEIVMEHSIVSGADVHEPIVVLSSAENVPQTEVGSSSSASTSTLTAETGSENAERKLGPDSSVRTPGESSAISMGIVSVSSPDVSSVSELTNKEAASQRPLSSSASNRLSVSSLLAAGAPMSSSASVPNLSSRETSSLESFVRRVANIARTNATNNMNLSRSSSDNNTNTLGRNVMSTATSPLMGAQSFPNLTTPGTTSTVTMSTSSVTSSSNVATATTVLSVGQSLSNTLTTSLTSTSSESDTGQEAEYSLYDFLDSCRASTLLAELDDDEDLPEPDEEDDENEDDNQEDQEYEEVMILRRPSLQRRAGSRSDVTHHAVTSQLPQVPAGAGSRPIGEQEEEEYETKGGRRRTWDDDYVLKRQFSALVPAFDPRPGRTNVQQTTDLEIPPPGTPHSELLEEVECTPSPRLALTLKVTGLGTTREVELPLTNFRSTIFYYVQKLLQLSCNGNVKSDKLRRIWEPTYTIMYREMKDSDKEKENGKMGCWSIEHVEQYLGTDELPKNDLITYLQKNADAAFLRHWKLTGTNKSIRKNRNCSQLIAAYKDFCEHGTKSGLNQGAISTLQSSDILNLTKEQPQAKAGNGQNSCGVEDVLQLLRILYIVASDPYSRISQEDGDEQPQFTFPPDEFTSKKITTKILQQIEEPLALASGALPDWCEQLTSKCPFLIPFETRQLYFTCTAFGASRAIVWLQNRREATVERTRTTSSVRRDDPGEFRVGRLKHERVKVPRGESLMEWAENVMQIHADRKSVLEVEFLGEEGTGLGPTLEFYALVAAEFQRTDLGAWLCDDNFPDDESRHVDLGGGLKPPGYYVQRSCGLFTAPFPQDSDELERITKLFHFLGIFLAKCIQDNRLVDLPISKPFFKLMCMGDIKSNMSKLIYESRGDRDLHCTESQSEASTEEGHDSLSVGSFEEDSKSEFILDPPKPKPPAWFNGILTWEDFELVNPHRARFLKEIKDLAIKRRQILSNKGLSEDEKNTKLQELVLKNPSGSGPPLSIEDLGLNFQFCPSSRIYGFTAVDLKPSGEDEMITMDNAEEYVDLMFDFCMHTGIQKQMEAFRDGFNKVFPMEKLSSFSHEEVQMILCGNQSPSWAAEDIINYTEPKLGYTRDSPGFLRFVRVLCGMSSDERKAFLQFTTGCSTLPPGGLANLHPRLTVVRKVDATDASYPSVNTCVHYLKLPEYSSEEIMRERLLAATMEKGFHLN

Regarding `C=C(CC)C(=O)c1ccc(OCC(=O)O)c(Cl)c1Cl` [etacrynic acid], the RH/L result is reported as “the etacrynic acid-engaged C1368 of HECTD1 is spatially distant from the active site”.
